Test results published in patent US10633389B2, “CARM1 inhibitors and uses thereof” (Epizyme, Inc., priority 2013, dated 2020).

These molecules were tested on asymmetric di-methyl PABP1 in RKO cells (assay: RKO methylation assay, In Cell Western (ICW) for asymmetric di-methyl PABP1). Settings: Homo sapiens, RKO, Cellular potencies, ICW PABP1me2a.
Type: cell-based
How it was run: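 In-cell Western on fixed RKO cells after 48 h compound exposure: anti-asymmetric di-methyl PABP1 signal at 800 nm over DRAQ5 DNA signal at 700 nm. Percent inhibition set between DMSO wells and wells with 20 μM reference compound; IC50 curves fitted in triplicate.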

First: CNCC(O)COc1cccc(-c2nc(NC3CN(C(=O)OC)C3)c(C)c(-c3c(C)noc3C)n2)c1 (stereo not shown) [Example 275-1a]
Second: CNC[C@H](O)COc1cccc(-c2nc(NC3CCN(C(=O)OC)C(C)C3)c(C)c(-c3c(C)noc3C)n2)c1 (stereo partly shown) [Example 33-3]
The IC50 of the first is higher: 10 to 20 µM for the first, less than 5 µM for the second. The second is the more potent here.

Compared with `CNCC(O)COc1cccc(-c2nc(-c3nc(C)c[nH]3)cc(N(C)C3CCOCC3)n2)c1` (stereo not shown) [Example 521-1a], `CNCC(O)COc1cccc(-c2nc(-c3csnc3C)cc(N(C)C3CCOCC3)n2)c1` (stereo not shown) [Example 493-1a] is lower in IC50: 5 to 10 µM for the first, less than 5 µM for the second. The second is the more potent here.

`CCOC(=O)N1CCC2(CC1)CN(c1nc(-c3cc(OC[C@H](O)CNC)ccc3F)nc(-c3c(C)noc3C)c1C)C2` [Example 282-3] and `CNC[C@H](O)COc1ccc(Cl)c(-c2nc(-c3c(C)noc3C)c(C)c(N3CCC4(CC3)CN(S(C)(=O)=O)C4)n2)c1` [Example 75-3] cannot be ordered by IC50: less than 5 µM for the first, less than 5 µM for the second.

Compared with `CNCC(O)COc1cccc(-c2nc(-c3c(C)noc3C)cc(N3CCN(CC(F)F)CC3)n2)c1` (stereo not shown) [Example 79-1a], `CNCC(O)COc1cccc(-c2nc(-c3c(C)noc3C)cc(N3CC[C@H](S(C)(=O)=O)C3)n2)c1` (stereo partly shown) [Example 69-1a] is higher in IC50: less than 5 µM for the first, 10 to 20 µM for the second. The first is the more potent here.

`CNC[C@@H](O)COc1ccc(Cl)c(-c2nc(N[C@H]3CCOC3)c(C)c(-c3c(C)noc3C)n2)c1` [Example 111-3] and `CNC[C@@H](O)COc1ccc(Cl)c(-c2nc(N[C@@H]3CCO[C@H](C)C3)c(C)c(-c3c(C)noc3C)n2)c1` [Example 132-3] cannot be ordered by IC50: less than 5 µM for the first, less than 5 µM for the second.

`CNCC(O)COc1cccc(-c2nc(-c3c(C)noc3C)c(C)c(N3CC[C@H](C(=O)N(C)C)C3)n2)c1` (stereo partly shown) [Example 162-1a] and `CNCC(O)COc1cccc(-c2nc(-c3c(C)noc3C)c(C)c(N3CC(NC(=O)N(C)C)C3)n2)c1` (stereo not shown) [Example 13-3] cannot be ordered by IC50: less than 5 µM for the first, less than 5 µM for the second.

`CNC[C@@H](O)COc1ccc(F)c(-c2nc(-c3c(C)noc3C)cc(N3Cc4nccnc4C3)n2)c1` [Example 274-3] and `CNC[C@@H](O)COc1ccc(F)c(-c2nc(-c3c(C)noc3C)c(Cl)c(N3Cc4nccnc4C3)n2)c1` [Example 295-3] cannot be ordered by IC50: less than 5 µM for the first, less than 5 µM for the second.

`CNCC(O)COc1ccc(Cl)c(-c2nc(NC[C@H]3CCCO3)c(C)c(-c3c(C)noc3C)n2)c1` (stereo partly shown) [Example 6-3] and `CNC[C@H](O)COc1ccc(Cl)c(-c2nc(NCC3COCCO3)c(C)c(-c3c(C)noc3C)n2)c1` (stereo partly shown) [Example 96-3] cannot be ordered by IC50: less than 5 µM for the first, less than 5 µM for the second.

`CNCC(O)COc1cccc(-c2nc(N[C@@H]3CCOC3)c(C)c(N3CCC[C@@H](O)C3)n2)c1` (stereo partly shown) [Example 358-1a] and `CNCC(O)COc1cccc(-c2nc(N[C@@H]3CCOC3)c(C)c(N3CC4CCC(C3)O4)n2)c1` (stereo partly shown) [Example 412-1a] fall in the same range of IC50: 10 to 20 µM for the first, 10 to 20 µM for the second.

`CCO[C@H]1CCC[C@H]1Nc1nc(-c2cc(OC[C@H](O)CNC)ccc2Cl)nc(-c2c(C)noc2C)c1C` [Example 242-3] and `CNC[C@@H](O)COc1ccc(Cl)c(-c2nc(N[C@H]3CCO[C@H](C)C3)c(C)c(-c3c(C)noc3C)n2)c1` [Example 196-3] cannot be ordered by IC50: less than 5 µM for the first, less than 5 µM for the second.

First: CNCC(O)COc1cccc(-c2nc(NCC3(O)CCOCC3)c(C)c(-c3c(C)noc3C)n2)c1 (stereo not shown) [Example 114-1a]
Second: CNCC(O)COc1cccc(-c2nc(NCC3CCN(C4COC4)CC3)c(C)c(-c3c(C)noc3C)n2)c1 (stereo not shown) [Example 262-1a]
The IC50 of the first is higher: 10 to 20 µM for the first, less than 5 µM for the second.

`CNC[C@H](O)COc1ccc(Cl)c(-c2nc(N[C@H]3CCN(C4CC4)C[C@H]3F)c(C)c(-c3c(C)noc3C)n2)c1` [Example 43-3] and `CNC[C@@H](O)COc1ccc(Cl)c(-c2nc(N[C@H]3CCN(C4CC4)C[C@H]3F)c(C)c(-c3c(C)noc3C)n2)c1` [Example 44-3] cannot be ordered by IC50: less than 5 µM for the first, less than 5 µM for the second.

`CNCC(O)COc1cccc(-c2nc(NC3CCN(C(=O)C4CC4)CC3)c(C)c(-c3c(C)noc3C)n2)c1` (stereo not shown) [Example 245-1a] and `CNCC(O)COc1cccc(-c2nc(NC3CCCC3)c(C)c(-c3c(C)noc3C)n2)c1` (stereo not shown) [Example 241-1a] cannot be ordered by IC50: less than 5 µM for the first, less than 5 µM for the second.

First: CNCC(O)COc1cccc(-c2nc(N[C@H]3COC(=O)C3)c(C)c(-c3c(C)noc3C)n2)c1 (stereo partly shown) [Example 267-1a]
Second: CNCC(O)COc1cccc(-c2nc(N[C@H]3C[C@H](O)C3)c(C)c(-c3c(C)noc3C)n2)c1 (stereo partly shown) [Example 254-1a]
The IC50 of the first is higher: 10 to 20 µM for the first, less than 5 µM for the second.

Compared with `CNCC(O)COc1cccc(-c2nc(C(=O)NC3CCOCC3)c(C)c(C(=O)NC3CCOCC3)n2)c1` (stereo not shown) [Example 677-1a], `CNCC(O)COc1cccc(-c2nc(N[C@@H]3CCOC3)c(Cl)c(N3CCOCC3)n2)c1` (stereo partly shown) [Example 376-1a] is lower in IC50: no less than 20 µM for the first, 5 to 10 µM for the second. The second is the more potent here.

First: CNCC(O)COc1cccc(-c2nc(-c3cnc4c(C(=O)OC)cnn4c3)cc(N(C)C3CCOCC3)n2)c1 (stereo not shown) [Example 482-1a]
Second: CNC[C@@H](O)COc1cccc(-c2nc(-c3c[nH]c4ncncc34)cc(N(C)C3CCOCC3)n2)c1 [Example 571-1a]
The IC50 of the first is lower: less than 5 µM for the first, 10 to 20 µM for the second.

`Cc1noc(C)c1-c1cc(NC2CCOCC2)nc(-c2cccc(OC[C@H](O)CN)c2)n1` [Example 16-1a] and `CNCC(O)COc1cccc(-c2nc(-c3c(C)noc3C)c(C)c(N(C)CC3CCOCC3)n2)c1` (stereo not shown) [Example 86-1a] fall in the same range of IC50: 5 to 10 µM for the first, 5 to 10 µM for the second.

`C=C(C)c1cc(N(C)C2CCOCC2)nc(-c2cc(Cl)cc(OCC(O)CNC)c2)n1` (stereo not shown) [Example 619-1a] and `CNCC(O)COc1cc(Cl)cc(-c2nc(-c3ccncc3)c(Br)c(N(C)C3CCOCC3)n2)c1` (stereo not shown) [Example 611-1a] fall in the same range of IC50: 10 to 20 µM for the first, 10 to 20 µM for the second.

`CNC[C@@H](O)COc1ccc(Cl)c(-c2nc(-c3c(C)noc3C)c(C)c(N3CC4(CCCO4)C3)n2)c1` [Example 121-3] and `CNC[C@@H](O)COc1ccc(Cl)c(-c2nc(-c3c(C)noc3C)c(C)c(N3Cc4cc(Cl)cnc4C3)n2)c1` [Example 156-3] cannot be ordered by IC50: less than 5 µM for the first, less than 5 µM for the second.

`CNCC(O)COc1cccc(-c2nc(-c3c(C)nn(C(C)C)c3C)cc(N(C)C3CCOCC3)n2)c1` (stereo not shown) [Example 496-1a] and `CNCC(O)COc1cccc(-c2nc(-c3c(C)noc3C)c(C)c(N3CCO[C@H](CN(C)C)C3)n2)c1` (stereo partly shown) [Example 151-1a] cannot be ordered by IC50: less than 5 µM for the first, less than 5 µM for the second.

Compared with `CNCC(O)COc1cccc(-c2nc(-c3c(C)noc3C)c(C)c(N3CCO[C@H](CNC)C3)n2)c1` (stereo partly shown) [Example 124-1a], `CNCC(O)COc1cccc(-c2nc(-c3c(C)noc3C)c(C)c(N3C[C@@H](C)O[C@@H](C)C3)n2)c1` (stereo partly shown) [Example 164-1a] is lower in IC50: 5 to 10 µM for the first, less than 5 µM for the second.

`CNCC(O)COc1ccc(Cl)c(-c2nc(NC3CCN(C(=O)OC)CC3)c(Cl)c(-c3c(C)noc3C)n2)c1` (stereo not shown) [Example 187-1a] and `CCOC(=O)N1CC[C@@H](Nc2nc(-c3cc(OC[C@H](O)CNC)ccc3Cl)nc(-c3c(C)noc3C)c2Cl)C1` [Example 129-3] cannot be ordered by IC50: less than 5 µM for the first, less than 5 µM for the second.

`CCOC(=O)N1CCCCC1CNc1nc(-c2cc(OC[C@H](O)CNC)ccc2Cl)nc(-c2c(C)noc2C)c1C` (stereo partly shown) [Example 28-3] and `CCOC(=O)N1CC[C@@H](Nc2nc(-c3cc(OC[C@H](O)CNC)ccc3Cl)nc(-c3c(C)noc3C)c2C)C1` [Example 112-3] cannot be ordered by IC50: less than 5 µM for the first, less than 5 µM for the second.

Compared with `CNCC(O)COc1cccc(-c2nc(Nc3nnc(C4CC4)s3)c(C)c(-c3c(C)noc3C)n2)c1` (stereo not shown) [Example 217-1a], `CNCC(O)COc1cccc(-c2nc(Nc3nccn3C)c(C)c(-c3c(C)noc3C)n2)c1` (stereo not shown) [Example 18-3] is higher in IC50: less than 5 µM for the first, 10 to 20 µM for the second.

`CNCC(O)COc1cccc(-c2nc(N[C@@H]3CCOC3)c(C)c(-c3ccncc3)n2)c1` (stereo partly shown) [Example 332-1a] and `CNCC(O)COc1cccc(-c2nc(N[C@@H]3CCOC3)c(C)c(N3CCN(C)C(=O)C3)n2)c1` (stereo partly shown) [Example 435-1a] fall in the same range of IC50: 10 to 20 µM for the first, 10 to 20 µM for the second.

`CNC[C@H](O)COc1ccc(F)c(-c2nc(N[C@H]3CCN(C4CC4)C[C@H]3F)c(C)c(-c3c(C)noc3C)n2)c1` [Example 99-3] and `CNC[C@@H](O)COc1ccc(Cl)c(-c2nc(N[C@@H]3CCN(C4CC4)C[C@@H]3F)c(Cl)c(-c3c(C)noc3C)n2)c1` [Example 211-3] cannot be ordered by IC50: less than 5 µM for the first, less than 5 µM for the second.

`CCS(=O)(=O)N1CCC(Nc2nc(-c3cccc(OCC(O)CNC)c3)nc(-c3c(C)noc3C)c2C)C1` (stereo not shown) [Example 197-1a] and `CCS(=O)(=O)N1CCC(CNc2nc(-c3cccc(OCC(O)CNC)c3)nc(-c3c(C)noc3C)c2C)CC1` (stereo not shown) [Example 192-1a] cannot be ordered by IC50: less than 5 µM for the first, less than 5 µM for the second.

`CNCC(O)COc1cccc(-c2nc(NCC3CCN(C4CC4)CC3)c(C)c(-c3c(C)noc3C)n2)c1` (stereo not shown) [Example 283-1a] and `CNCC(O)COc1cccc(-c2nc(N[C@@H]3CC[C@H](O)C3)c(C)c(-c3c(C)noc3C)n2)c1` (stereo partly shown) [Example 163-1a] cannot be ordered by IC50: less than 5 µM for the first, less than 5 µM for the second.

First: CNCC(O)COc1cccc(-c2nc(NC3CCOC3)c(C)c(N3CC(N)CC(Cl)C3)n2)c1 (stereo not shown) [Example 442-1a]
Second: CNCC(O)COc1cccc(-c2nc(NC3CCOC3)c(C)c(N3CCN(CCF)CC3)n2)c1 (stereo not shown) [Example 446-1a]
The IC50 of the first is higher: 10 to 20 µM for the first, less than 5 µM for the second. The second is the more potent here.

Compared with `CNCC(O)COc1cccc(-c2nc(-c3c(C)noc3C)c(C)c(N3CC(CO)(CNC(=O)N(C)C)C3)n2)c1` (stereo not shown) [Example 298-1a], `CNCC(O)COc1cccc(-c2nc(NC3CCOC(C)(C)C3)c(C)c(-c3c(C)noc3C)n2)c1` (stereo not shown) [Example 290-1a] is lower in IC50: 10 to 20 µM for the first, less than 5 µM for the second. The second is the more potent here.

First: CNCC(O)COc1cc(Cl)cc(-c2nc(-c3ccncc3)c(C)c(N(C)[C@H]3CCOC3)n2)c1 (stereo partly shown) [Example 334-1a]
Second: CNCC(O)COc1cccc(-c2nc(N[C@H]3CC[C@H](OC)C3)c(C)c(-c3c(C)noc3C)n2)c1 (stereo partly shown) [Example 234-1a]
The IC50 of the first is higher: 10 to 20 µM for the first, less than 5 µM for the second.

`CNC[C@@H](O)COc1ccc(Cl)c(-c2nc(-c3c(C)noc3C)c(C)c(N3Cc4cnc(C5CC5)nc4C3)n2)c1` [Example 259-3] and `CNC[C@@H](O)COc1ccc(Cl)c(-c2nc(-c3c(C)noc3C)c(F)c(N3Cc4nccnc4C3)n2)c1` [Example 297-3] cannot be ordered by IC50: less than 5 µM for the first, less than 5 µM for the second.

`CNCC(O)COc1cccc(-c2nc(OCC3CCN(CC(F)F)CC3)c(C)c(-c3c(C)noc3C)n2)c1` (stereo not shown) [Example 288-1a] and `CNCC(O)COc1cccc(-c2nc(Nc3cnc(OC)nc3)cc(-c3c(C)noc3C)n2)c1` (stereo not shown) [Example 72-1a] cannot be ordered by IC50: less than 5 µM for the first, less than 5 µM for the second.

Work on `CNCC(O)COc1cccc(-c2nc(-c3c(C)noc3C)cc(-c3cnc4cnccn34)n2)c1` (stereo not shown) [Example 112-1a] yielded an IC50 of 10 to 20 µM.
